Earlier results, collected in patent US6358910B1, “Detergent compositions” (Lever Brothers Company, divison of Conopco, Inc., priority 1997, dated 2002).

Settings: grams of solid to form a saturated solution in 100 grams of water at 20° C.

SMILES	Water Solubility (g/100 g)
NC(N)=O [Urea]	>100
O=P(O)(O)OP(=O)(O)OP(=O)(O)O [Sodium tripolyphosphate anhydrous]	15
O=BO[O-].[Na+] [Sodium perborate anhydrous]	3.7
